Binding data for one molecule are collected here from publication PMC9078933 (2018).

In this test the test system is ATB1 (DNA, aptamer) ATATCTTTTCCTACTCATCTTTGAATAACTACCGGGCATTACTTTCTGGCCTCCCTGCCTCCTAAATCACCAATTAATTCGCGGCCCCCCG
The test can be described thus: fluorescence recovery, aptamer-QD on graphene oxide. The following applies: phosphate buffer pH 7.2, 0.5% BSA, room temperature; tested concentration not stated.

Turning to `C[C@@H]1Cc2c(Cl)cc(C(=O)N[C@@H](Cc3ccccc3)C(=O)O)c(O)c2C(=O)O1`, the binding entry was “no”.
